Test results published in US20260216166A1, “COMPOUND FOR TREATMENT OF ERECTILE DYSFUNCTION” (Initiator Pharma A/S, priority 2023, published 2026).
“Also recorded” adds a separate entry of the source.

Columns and labels:
anaesthetized rats = assay: Intracavernous pressure / spontaneous erections in anaesthetized rats; assay type: in vivo, rat; conditions: rats
Experimental: For in vivo erectile physiology studies, rats were anaesthetized with pentobarbital sodium (Sygehus Apoteket, Aarhus, Denmark; 50 mg/kg) given intraperitoneally. During the experiment, the rats breathed spontaneously; the body temperature was monitored continuously and was maintained at 37° C. With a midline incision in the perineum, the base of the penis, enclosed by striated muscles, was exposed. The ischiocavernous muscle covering the crus corpus cavernosum was divided on one side, and entrance to the underlying tunica albuginea was given. A 25-gauge needle attached to a heparinized (100 IE ml-1) polyethylene catheter was inserted into the crus corpus cavernosum to measure intracavernous pressure (ICP). A heparinized polyethylene catheter (PE 50) was introduced into the carotid artery to measure mean arterial pressure (MAP). Continuous direct measurements of MAP and ICP were performed with transducers (Disposable BP Transducer, ADInstruments, UK), and registered and analysed on a computerized data acquisition system (PowerLab, ADInstruments).
A stabilizing period of 20-30 min was allowed before registration of basal ICP and MAP. Through a lower abdominal incision, the cavernous nerve was isolated at the lateral aspect of the prostate, and electrical stimulation was performed with a slender bipolar platinum electrode, which was connected to a S48 stimulator (Grass Instrument Co., Boston, MA, U.S.A.). To measure the maximum amplitude of the erectile response, a first stimulation of the cavernous nerve (square wave pulses of 6 Volts, 10 Hz, 1 ms pulse duration for 30 s) was performed.
IP2015, sildenafil, clozapine or vehicle were administered by injection in the jugular vein in volumes of maximum 200 μl. […] The observation period of spontaneous erection after injection of IP2015 was 30 min. Clozapine (1 mg/kg) or sildenafil (1 mg/kg) were administered 30 or 10 min prior to 1 mg/kg IP2015 injection, respectively. One group was injected with vehicle alone.
To investigate the involvement of proximal neuronal pathways in the effect of IP2015, mechanical denervation was performed. For mechanical denervation the isolated cavernous nerve was cut distal to the major pelvic ganglion. Absence of erectile response to electrical stimulation verified the efficacy of mechanical denervation.

[1] = test system: rat corpus cavernosum strips; assay: Isometric tension of isolated rat corpus cavernosum strips; conditions: baseline tension, clozapine 10^-6 M, SCH23390, L-NOARG 10^-4 M, sildenafil 10^-7 M
Experimental: For functional studies in corpus cavernosum strips, the penis was removed by cutting the crura corpora cavernosa at the point of adhesion to the lower pubic bone, and the corpora cavernosa were then dissected free. The penis was submerged immediately in ice-cold (4° C.) PSS. The tunica albuginea was carefully opened from its proximal extremity of the corpus cavernosum towards the penile shaft and the erectile tissue within the corpus cavernosum was microsurgically dissected free. Change in isometric tension of corpus cavernosum strips (0.5×0.5×3 mm) were investigated in a tissue organ bath system (750TOBS, Danish Myotechnology, Aarhus, Denmark). Silk ligatures were applied at both ends of the strip preparations, which were then suspended between two L-formed metal prongs in thermostatically controlled organ baths (5 ml, 37° C.) containing PSS aerated with a mixture of 5% CO2 in air (pH 7.4). The bath fluid was routinely changed every 20 min and replaced with fresh PSS, also kept at 37° C. During an equilibration period of 60 min, tension was adjusted until a mean stable tension of 1.2 mN was obtained, as described earlier.
To test the contractility of the preparations, they were exposed to a potassium physiological saline solution (KPSS) of 125 mM and phenylephrine (10^-6 M), after each contraction acetylcholine was administrated to check endothelium-dependent relaxations.
To investigate the effect of IP2015 on corpus cavernosum strips, the drug (10 9-3×10^-4 M) was administered either in preparations at baseline tension or contracted with phenylephrine (10^-6 M) in the absence or presence of L-NOARG (10 4 M), a NO synthase inhibitor, sildenafil (10^-7 M), a PDE5 inhibitor, a dopamine D1 receptor antagonist, SCH23390, and a dopamine D2 receptor antagonist, clozapine (10^-6 M). The effect of vehicle was also investigated.

| Compound | effect on magnitude of erectile responses induced by IP2015 (0.1 mg/kg) (anaesthetized rats; sildenafil 1 mg/kg) | effect on IP2015-induced erectile responses (anaesthetized rats; sildenafil 1 mg/kg 10 min or clozapine 1 mg/kg 30 min prior to IP2015 i.v.) | effect on IP2015 relaxation of corpus cavernosum strips [1] | effect on IP2015 relaxation of corpus cavernosum strips ([1]; listed as NG-nitro-L-arginine) |
| --- | --- | --- | --- | --- |
| CCCc1nn(C)c2c(=O)[nH]c(-c3cc(S(=O)(=O)N4CCN(C)CC4)ccc3OCC)nc12 [sildenafil, reference compound] | an effect on the magnitude of erectile responses | markedly increased the duration of these responses; also recorded: further enhanced the IP2015 mediated increase in intracavernosal pressure | enhanced relaxation to IP2015 | – |
| N=C(NCCC[C@H](N)C(=O)O)N[N+](=O)[O-] [L-NOARG, N^G-nitro-L-arginine, reference compound] | – | – | abolished the relaxant effect of IP2015 | blunted |
